Results on five compounds are retold here after patent US12053465B2, “KCC2 expression enhancing compounds and uses thereof” (Whitehead Institute for Biomedical Research, priority 2017, dated 2024).

Experiment [1] deals with KCC2 expression. The experiment in a line: Western blot of KCC2 in organotypic mouse brain slices. Type of experiment: cell-based. The settings on record: organotypic neonatal mouse brain slices, treated 7 days, vs DMSO, MeBIO or medium-only control. Background: Immunoblotting shows a protein as a band on a membrane.
Experiment [2] concerns KCC2 expression. Briefly: Western blot of KCC2 in cultured WT human neurons. Type of experiment: cell-based. The settings on record: cultured WT human neurons (WIBR1); Western blot.
The test system of experiment [3] is KCC2 mRNA. Briefly: Quantitative RT-PCR of KCC2 mRNA in organotypic mouse brain slices. Type of experiment: cell-based. The procedure: (§1) Brain slices were also treated with the FLT3 inhibitors Crenolanib and XL-184. […] To assess whether increased KCC2 protein levels were due to increased gene transcription or enhanced protein stability, quantitative RT-PCR experiments were performed to measure the KCC2 mRNA level in KEEC-treated brain slices. […] In contrast, the expression of NKCC1, a chloride transporter that antagonizes KCC2 activity by shuttling Cl^− into the cell (44), was decreased by treatment with KEEC compounds (FIG. 8F).
(§2) Brain slice cultures were prepared from P1 neonatal mouse according to a protocol described by Antonio del Rio et al., Nature Protocols, 2010. Cerebrum slices (1 mm in thickness) were prepared from neonatal mouse brain, and were transferred to 6-well culture inserts with the pore size of 0.4 μm. The insert was placed in 6-well plates with 1 ml of culture medium. Three days after the initial culture, compounds and DMSO control were added to the medium. Alternately, in some experiments, brain slice cultures were prepared from P3 neonatal mouse according to a protocol described by Antonio del Rio et al., Nature Protocols, 2010. Cerebrum slices (1 mm in thickness) were prepared from neonatal mouse brain, and were transferred to 6-well culture inserts with the pore size of 0.4 μm. The insert was placed in 6-well plates with 1 ml of culture medium. The day after the initial culture, compounds and DMSO control were added to the medium. The medium with fresh compounds was used to replace old medium every other day. One week after drug treatment, the brain slices were harvested for Western blot or qRT-PCR analysis.
(§3) To prepare RNA samples from cultured organotypic brain slice, tissue samples were homogenized by passing through a 23 gauge needle for a number of times. Total RNA was extracted with Omega Total RNA kit and was reverse-transcribed into cDNA using the Invitrogen Superscript RT system and Oligo dT primer. SYBR green-based quantitative RT-PCR assay was performed to detect for the abundance of specific mRNA transcripts. The primer sequence for the detection of KCC2 expression in mouse brain samples are as follows: KCC2-Forward: […] (SEQ ID NO: 2); KCC2-Reverse: […] (SEQ ID NO: 3). The primer sequence for detection of NKCC1 mRNA are as follows: NKCC1-Forward: […] (SEQ ID NO: 3); NKCC1-Reverse: […] (SEQ ID NO: 4). The gene expression was calculated by normalizing the KCC2 data with the expression of housekeeping gene HDAC2 in every sample. HDAC2 expression was detected using the following primers: HDAC2-Forward: […] (SEQ ID NO: 5); HDAC2-Reverse: […] (SEQ ID NO: 6). Relative gene expression levels were calculated by normalizing KCC2 or NKCC1 expression in drug-treated groups with that in DMSO controls with the housekeeping gene HDAC being used as internal control.

Experiment [4] deals with NKCC1 mRNA. Briefly: Quantitative RT-PCR of NKCC1 mRNA in organotypic mouse brain slices. Type of experiment: cell-based. The procedure: as §1, §2, §3
The test system of experiment [5] is KCC2 expression. Briefly: Western blot of KCC2 in cultured human RTT neurons. Type of experiment: cell-based. Here is the method: Protein samples were collected from cultured brain slices or cultured neurons in 12-well format with RIPA lysis buffer (in mM: 150 NaCl, 25 Tris-HCl, 1 EDTA, 1% NP-40, 1% sodium deoxycholate, 0.1% SDS, with protein kinase inhibitor and protease inhibitor, pH adjusted to 7.6). A sonication step was applied to homogenize tissue and extract protein, followed by a 10 minute centrifugation at 4° C. […] The PVDF membrane was blocked for 30 minutes with 5% milk in TBS+0.1% Tween 20 (TBST), and incubated overnight at 4° C. with primary antibodies diluted in TBST-milk at the following concentrations: KCC2 (1:2000, Millipore), NKCC1 (1:1000, Iowa Hybridoma bank), α-Tubulin (1:4000, Abcam), GAPDH (1:3000, Abcam), Actin (1:2000, Sigma Aldrich #A2066). The membrane was rinsed with TBST three times to wash off excess antibodies, and then incubated in secondary HRP antibodies in TBST-milk at 1:5000 concentration.
The PVDF membrane was then stripped using the Re-blot plus strong solution (Millipore), and re-immunoblotted for NKCC1 (˜150 kDa) to acquire KCC2/NKCC1 ratio. The area and intensity of protein signal was determined using ImageJ. The relative KCC2 and NKCC1 expression were calculated by normalizing protein signal to GAPDH or Tubulin loading control.

Experiment [6] has as its system NRSF/REST. The settings on record: glioblastoma cell line; via SIRT1 pathway (49); cited from earlier work.
The subject of experiment [7] is REST. Briefly: Western blot of REST in cultured human RTT neurons. In kind it is cell-based. The source says:
Two hit compounds Resveratrol and Piperine act on different pathways than the kinase inhibitors, activating the Sirtuin 1 (SIRT1) (49) and the transient receptor potential cation channel subfamily V member 1 (TRPV1) (50) signaling pathways, respectively.
Protein samples were collected from cultured brain slices or cultured neurons in 12-well format with RIPA lysis buffer (in mM: 150 NaCl, 25 Tris-HCl, 1 EDTA, 1% NP-40, 1% sodium deoxycholate, 0.1% SDS, with protein kinase inhibitor and protease inhibitor, pH adjusted to 7.6). A sonication step was applied to homogenize tissue and extract protein, followed by a 10 minute centrifugation at 4° C. The protein samples were mixed with NuPAGE LDS sample buffer, heated at 95° C. for 10 minutes, and then separated on NuPAGE 4-12% Bis-Tris gel and transferred to PVDF membrane. The PVDF membrane was blocked for 30 minutes with 5% milk in TBS+0.1% Tween 20 (TBST), and incubated overnight at 4° C. with primary antibodies diluted in TBST-milk at the following concentrations: KCC2 (1:2000, Millipore), NKCC1 (1:1000, Iowa Hybridoma bank), α-Tubulin (1:4000, Abcam), GAPDH (1:3000, Abcam), Actin (1:2000, Sigma Aldrich #A2066). The membrane was rinsed with TBST three times to wash off excess antibodies, and then incubated in secondary HRP antibodies in TBST-milk at 1:5000 concentration.

The subject of experiment [8] is KCC2 expression (KCC2-2A-luciferase reporter). The experiment in a line: KCC2-2A-luciferase reporter compound screening with RTT KCC2 reporter neurons. In kind it is cell-based, human. The settings on record: for B Score: MECP2-null RTT human KCC2 reporter neurons, LINCS, SMART, ICCB libraries, Luc/CTG normalized to in-plate DMSO, hit = B score >3. The procedure:
The RTT KCC2-2A-luciferase reporter neurons were treated with the test compounds from the LINCS kinase inhibitor library and IRSF SMART compound library and incubated before being lysed. The cell lysate was divided into two parts to measure luciferase signal (KCC2 translation) and Cell-Titer Glow (CTG, amount of ATP). The luciferase signal was normalized to CTG for each well, and the Luc/CTG ratio was normalized to the in-plate DMSO negative control to calculate fold change ratio.
Additional screens for reporter activation in the MECP2-null RTT human KCC2 reporter neurons (isogenic to the WT reporter cells used above) were performed with the LINCS and SMART libraries as well as the ICCB known bioactive library and identified hits as compounds with B score >3.
The cells were dissociated with Accutase and resuspended in 10 ml neuronal differentiation medium to count cells. The cells were then diluted to the final density of 200,000 to 500,000 cells/ml. Matrigel was added to the cell suspension at a dilution ratio of 1:300 to promote cell adhesion after plating. AraC was added to cell suspension at the concentration of 2 μM to inhibit cell division. The cells were plated into 96-well plates with an automated cell seeding machine using the following protocol: The neuron flask was washed with PBS. The neurons were digested off the plate with Accutase for 30 minutes at 37° C. Next, the dissociated cells were collected and spun down at 750 rpm for 5 minutes. The cell pellet was dissociated by gentle trituration with P1000 pipet and the cells were resuspended with 10 ml of neuronal medium. Then, the cells were filtered through a 40 μm cell strainer (Falcon) to get rid of clumps. The resulting single-cell suspension was counted using a Countess automated cell counter (Invitrogen Countess Automated Cell Counter, Catalog no. C10227). The neurons were resuspended with neuronal medium to 10× of the destination density (100,000 cells to 400,000 cells per ml). The cells were plated with a multichannel pipette, or proceeded to the machine-plating protocol described below:
The day after cell seeding, small molecule compounds from the IRSF (International Rett Syndrome Foundation) library were prepared at a concentration of 1 mM and dispensed into a blank V-bottomed test plates at 2 μl per well. Compound solvent DMSO was included in every plate as control. Using a liquid handling robot, about 80 μl of culture medium were discarded. Neuronal medium in the volume of 200 μl was added to the V-bottom test plate that contained 2 μl of 1 mM compounds, and mixed with compounds by pipetting up-and-down 3 times. The medium that contained the 10 μM compounds was then applied to the neuronal cell culture and incubated for 2 weeks before cell lysis and luciferase assay were performed.
The cells were dissociated with Accutase, resuspended in 10 ml neuronal differentiation medium to count cells. the final cell seeding density was 20 k-40 k cells per well for 96-well plates, and ˜10 k cells per well for 384-well plates. Matrigel was added to the cell suspension at a dilution ratio of 1:300 to promote cell adhesion after plating. AraC were added to the cell suspension at the concentration of 0.5 μM to inhibit astroglial cell division. The cells were dispensed into 96-well or 384-well plates (Coming) using a BioTek EL406 plate dispenser. […] The neurons were incubated with the compounds at 37° C./5% CO2 for a week before the luciferase assay.
The cells used for luciferase assay were KCC2 reporter neurons differentiated for 4 weeks, and treated with drug in 96-well format for 2 weeks. Cell density was between 20 k-40 k cells per well.
On the day of the luciferase assay, the cells were washed with PBS for two times, and 100 μl of cell lysis buffer was applied to the washed cells. The cell plates were transferred to a rocker to shake for 10 minutes in order to fully lyse the cells.

Experiment [9] has as its system immature mouse neurons. The experiment in a line: Gramicidin-perforated patch recording of EGABA in DIV6-7 immature mouse neurons. In kind it is cell-based.
Where [10] appears, read: cultured human RTT neurons, Western blot.
Where [11] appears, read: co-applied with EX-527 below the threshold for SIRT1 pathway inhibition.
[12] abbreviates: in the presence of a high concentration of SIRT1 pathway blocker EX-527, vs DMSO control.

Consider `CC1(COc2ccc3c(c2)ncn3-c2ccc3cccc(N4CCC(N)CC4)c3n2)COC1` [Crenolanib, 1-(2-{5-[(3-Methyloxetan-3-yl)methoxy]-1H-benzimidazol-1-yl}quinolin-8-yl)piperidin-4-amine], for which the KCC2 protein level result in experiment [1] is listed as “significantly increased the KCC2 protein level”. Besides, the KCC2 expression entry in [2] and in [5] (setting [10]) was “significant enhancement of KCC2 expression” each time. Besides, the “KCC2 mRNA level” value in [3] is “significantly increased KCC2 expression”. For the same compound, the “NKCC1 mRNA level” value in experiment [4] is “significant reduction in NKCC1 mRNA level”.
As to `O=C1Nc2ccccc2/C1=C1/Nc2ccccc2/C1=N\O` [Indirubin-monoxime, (2Z,3E)-3-(hydroxyimino)-[2,3′-biindolinylidene]-2′-one], the “KCC2 mRNA level” value in experiment [3] was “significantly increased KCC2 expression”. For the same compound, the “NKCC1 mRNA level” value in [4] is “significant reduction in NKCC1 mRNA level”. The KCC2 expression entry in experiment [5] (setting [10]) is listed as “increased KCC2 expression levels significantly”.
With `Oc1ccc(/C=C/c2cc(O)cc(O)c2)cc1` [Resveratrol, 3,5,4'-trihydroxy-trans-stilbene], in experiment [6], the “expression of NRSF/REST” value is reported as “reduces expression of the neuronal gene repressor NRSF/REST”. Moreover, the “level of REST” value in [7] (setting [11]) was “reduction in the level of REST”. Also, the REST expression entry in experiment [7] (setting [12]) is reported as “neither KCC2 nor REST was changed”. Besides, the “B Score” value in experiment [8] is 12.65. Besides, the “KCC2 reporter activity in RTT neurons” value in experiment [8] (RTT KCC2-2A-luciferase reporter neurons vs in-plate DMSO) was “significant increase of KCC2 reporter activity”. Further, the KCC2 expression entry in [5] (setting [11]) was “substantial increase in KCC2 expression”; in experiment [5] (setting [10]), “increase KCC2 expression”; in [5] (setting [12]), “neither KCC2 nor REST was changed”. Besides, the “concentration at which treatment significantly increases KCC2 expression” value in experiment [5] (cultured ESC-derived human RTT neurons, Western blot) turned out to be 10 µM.
As to `CCN(CC)CCNC(=O)c1c(C)[nH]c(/C=C2\C(=O)Nc3ccc(F)cc32)c1C` [Sunitinib, N-(2-diethylaminoethyl)-5-[(Z)-(5-fluoro-2-oxo-1H-indol-3-ylidene)methyl]-2,4-dimethyl-1H-pyrrole-3-carboxamide], the KCC2 expression entry in [2] was “significant enhancement of KCC2 expression”. Besides, the “KCC2 mRNA level” value in [3] is “significantly increased KCC2 expression”. Moreover, in [4], the “NKCC1 mRNA level” value was “significant reduction in NKCC1 mRNA level”.
As to `COc1cc2nccc(Oc3ccc(NC(=O)C4(C(=O)Nc5ccc(F)cc5)CC4)cc3)c2cc1OC` [XL-184, N′-[4-[(6,7-dimethoxy-4-quinolinyl)oxy]phenyl]-N-(4-fluorophenyl)-1,1-cyclopropanedicarboxamide], in [9] (DIV6-7 immature mouse neurons, untreated about −50 mV), the EGABA after treatment entry is “about −70 mV”. In addition, the “significant hyperpolarizing shift in EGABA” value in experiment [9] (DIV6 cultured immature mouse neurons) was “induces significant hyperpolarizing shift in EGABA”. For the same compound, the KCC2 protein level result in [1] is “significantly increased the KCC2 protein level”. The KCC2 expression entry in experiment [2] and in [5] (setting [10]) was “significant enhancement of KCC2 expression” in each case. For the same compound, the “KCC2 mRNA level” value in experiment [3] is “significantly increased KCC2 expression”. The “B Score” value in experiment [8] came to 3.25. In experiment [4], the “NKCC1 mRNA level” value is on record as “significant reduction in NKCC1 mRNA level”.
